Measurements taken from PubChem BioAssay (NCI).
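Tested at 5 concentrations; 48 h exposure; 96-well plates; endpoints linearly interpolated, else capped at highest concentration. TGI: total growth inhibition.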

Assays:
Experiment in all cases: DTP human tumour cell line panel, 48 h
OVCAR-8 ovarian = tested on: OVCAR-8 ovarian
BT-549 breast = tested on: BT-549 breast
OVCAR-4 ovarian = tested on: OVCAR-4 ovarian
SNB-75 CNS = tested on: SNB-75 CNS
PC-3 prostate = tested on: PC-3 prostate
SK-MEL-2 melanoma = tested on: SK-MEL-2 melanoma
SR leukemia = tested on: SR leukemia
SK-MEL-28 melanoma = tested on: SK-MEL-28 melanoma
NCI-H23 lung = tested on: NCI-H23 lung
SW-620 colon = tested on: SW-620 colon
MALME-3M melanoma = tested on: MALME-3M melanoma
MDA-MB-435 = tested on: MDA-MB-435
CCRF-CEM leukemia = tested on: CCRF-CEM leukemia
MOLT-4 leukemia = tested on: MOLT-4 leukemia
U251 CNS = tested on: U251 CNS
SK-MEL-5 melanoma = tested on: SK-MEL-5 melanoma
SF-539 CNS = tested on: SF-539 CNS
SN12C renal = tested on: SN12C renal
TK-10 renal = tested on: TK-10 renal
SF-295 CNS = tested on: SF-295 CNS
UO-31 renal = tested on: UO-31 renal
RXF 393 renal = tested on: RXF 393 renal
OVCAR-3 ovarian = tested on: OVCAR-3 ovarian
HL-60(TB) leukemia = tested on: HL-60(TB) leukemia
HCC-2998 colon = tested on: HCC-2998 colon
SF-268 CNS = tested on: SF-268 CNS
NCI/ADR-RES ovarian = tested on: NCI/ADR-RES ovarian
IGROV1 ovarian = tested on: IGROV1 ovarian
M14 melanoma = tested on: M14 melanoma
HOP-92 NSCLC = tested on: HOP-92 NSCLC
DU-145 prostate = tested on: DU-145 prostate
HCT-116 colon = tested on: HCT-116 colon
MDA-MB-231 breast = tested on: MDA-MB-231 breast
A549 NSCLC = tested on: A549 NSCLC
HT29 colon = tested on: HT29 colon
UACC-257 melanoma = tested on: UACC-257 melanoma
NCI-H226 lung = tested on: NCI-H226 lung
SNB-19 CNS = tested on: SNB-19 CNS
ACHN renal = tested on: ACHN renal
UACC-62 melanoma = tested on: UACC-62 melanoma
OVCAR-5 ovarian = tested on: OVCAR-5 ovarian
NCI-H522 lung = tested on: NCI-H522 lung
EKVX NSCLC = tested on: EKVX NSCLC
T-47D breast = tested on: T-47D breast
RPMI-8226 leukemia = tested on: RPMI-8226 leukemia
CAKI-1 renal = tested on: CAKI-1 renal
COLO 205 colon = tested on: COLO 205 colon
MCF7 breast = tested on: MCF7 breast
A498 renal = tested on: A498 renal
LOX IMVI melanoma = tested on: LOX IMVI melanoma
786-0 renal = tested on: 786-0 renal
SK-OV-3 ovarian = tested on: SK-OV-3 ovarian
MDA-N = tested on: MDA-N
HOP-62 NSCLC = tested on: HOP-62 NSCLC
KM12 colon = tested on: KM12 colon
HCT-15 colon = tested on: HCT-15 colon
NCI-H460 lung = tested on: NCI-H460 lung
HS 578T breast = tested on: HS 578T breast

Compound: C[N+](C)(C)CC(=O)N/N=C(/CC1OC(=O)c2ccccc21)c1ccccc1O (stereo not drawn)
- TGI (OVCAR-8 ovarian): 82 µM
- TGI (BT-549 breast): 95.7 µM
- TGI (OVCAR-4 ovarian): > 100 µM
- TGI (SNB-75 CNS): > 100 µM
- TGI (PC-3 prostate): > 100 µM
- TGI (SK-MEL-2 melanoma): > 100 µM
- TGI (SR leukemia): 34 µM
- TGI (SK-MEL-28 melanoma): > 100 µM
- TGI (NCI-H23 lung): 85.4 µM
- TGI (SW-620 colon): > 100 µM
- TGI (MALME-3M melanoma): > 100 µM
- TGI (MDA-MB-435): 97.8 µM
- TGI (CCRF-CEM leukemia): 49.3 µM
- TGI (MOLT-4 leukemia): 42.4 µM
- TGI (U251 CNS): 72.3 µM
- TGI (SK-MEL-5 melanoma): > 100 µM
- TGI (SF-539 CNS): 62.3 µM
- TGI (SN12C renal): > 100 µM
- TGI (TK-10 renal): > 100 µM
- TGI (SF-295 CNS): > 100 µM
- TGI (UO-31 renal): 56.1 µM
- TGI (RXF 393 renal): 86.4 µM
- TGI (OVCAR-3 ovarian): > 100 µM
- TGI (HL-60(TB) leukemia): 52.3 µM
- TGI (HCC-2998 colon): 50.9 µM
- TGI (SF-268 CNS): > 100 µM
- TGI (NCI/ADR-RES ovarian): 55.4 µM
- TGI (IGROV1 ovarian): > 100 µM
- TGI (M14 melanoma): > 100 µM
- TGI (HOP-92 NSCLC): 87.6 µM
- TGI (DU-145 prostate): > 100 µM
- TGI (HCT-116 colon): > 100 µM
- TGI (MDA-MB-231 breast): > 100 µM
- TGI (A549 NSCLC): > 100 µM
- TGI (HT29 colon): > 100 µM
- TGI (UACC-257 melanoma): 78.9 µM
- TGI (NCI-H226 lung): 57.4 µM
- TGI (SNB-19 CNS): > 100 µM
- TGI (ACHN renal): 66.4 µM
- TGI (UACC-62 melanoma): 72.1 µM
- TGI (OVCAR-5 ovarian): > 100 µM
- TGI (NCI-H522 lung): > 100 µM
- TGI (EKVX NSCLC): > 100 µM
- TGI (T-47D breast): > 100 µM
- TGI (RPMI-8226 leukemia): 22.1 µM
- TGI (CAKI-1 renal): > 100 µM
- TGI (COLO 205 colon): > 100 µM
- TGI (MCF7 breast): > 100 µM
- TGI (A498 renal): 77.1 µM
- TGI (LOX IMVI melanoma): 43.2 µM
- TGI (786-0 renal): 86.5 µM
- TGI (SK-OV-3 ovarian): > 100 µM
- TGI (MDA-N): > 100 µM
- TGI (HOP-62 NSCLC): > 100 µM
- TGI (KM12 colon): > 100 µM
- TGI (HCT-15 colon): > 100 µM
- TGI (NCI-H460 lung): 70.9 µM
- TGI (HS 578T breast): > 100 µM
